From ChEMBL document CHEMBL5214883, “Comprehensive review for anticancer hybridized multitargeting HDAC inhibitors” (Eur J Med Chem, 2021) come the findings set out here.

Each structure is given as a SMILES string. Bounds are passed on as bounds.

Data set [1] relates to MCF7. Briefly: Cytotoxicity against human MCF7 cells by trypan blue staining method. Type of data set: functional, cell-based.
For the next data set, the system named is HEK-293T. Briefly: Cytotoxicity against human 293T cells by trypan blue staining method. The following applies: read-out: LC50 (the source's name). In kind it is functional.
The subject of another data set is HaCaT. Briefly: Cytotoxicity against human HaCat cells by trypan blue staining method. Type of data set: functional. The following applies: read-out: LC50 (the source's name).
The next data set has as its system Jurkat. Briefly: Cytotoxicity against human Jurkat cells by trypan blue staining method. Type of data set: functional. The following applies: read-out: LC50 (the source's name).
For data set [2], the target named is T1, Histone deacetylase 1 (Homo sapiens, UniProt Q13547). Briefly: Inhibition of HDAC1 (unknown origin) relative to control. The following applies: concentration not given here.
T1 sequence (Q13547 whole entry): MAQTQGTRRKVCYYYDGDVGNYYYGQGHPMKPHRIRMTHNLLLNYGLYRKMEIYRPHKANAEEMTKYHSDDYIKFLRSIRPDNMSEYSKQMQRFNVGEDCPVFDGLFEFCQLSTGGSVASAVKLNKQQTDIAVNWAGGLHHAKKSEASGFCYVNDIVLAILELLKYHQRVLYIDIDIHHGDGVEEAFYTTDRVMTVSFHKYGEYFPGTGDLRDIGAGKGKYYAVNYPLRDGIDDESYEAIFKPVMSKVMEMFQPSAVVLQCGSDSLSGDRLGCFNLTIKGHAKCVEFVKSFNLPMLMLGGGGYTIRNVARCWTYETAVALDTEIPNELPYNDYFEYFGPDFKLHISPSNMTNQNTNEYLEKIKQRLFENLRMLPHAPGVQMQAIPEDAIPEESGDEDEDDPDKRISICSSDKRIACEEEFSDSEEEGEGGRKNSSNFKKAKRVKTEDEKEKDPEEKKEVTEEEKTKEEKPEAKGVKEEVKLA
A further data set relates to L1210. Briefly: Cytotoxicity against mouse L1210 cells by trypan blue staining method. Type of data set: functional. The following applies: read-out: LC50 (the source's name).
In a further data set the target is Vitamin D3 receptor (Homo sapiens, UniProt P11473). The experiment in a line: Agonist activity at Vitamin D receptor (unknown origin) by fluorescence polarization assay.
Vitamin D3 receptor, sequence (P11473 whole entry): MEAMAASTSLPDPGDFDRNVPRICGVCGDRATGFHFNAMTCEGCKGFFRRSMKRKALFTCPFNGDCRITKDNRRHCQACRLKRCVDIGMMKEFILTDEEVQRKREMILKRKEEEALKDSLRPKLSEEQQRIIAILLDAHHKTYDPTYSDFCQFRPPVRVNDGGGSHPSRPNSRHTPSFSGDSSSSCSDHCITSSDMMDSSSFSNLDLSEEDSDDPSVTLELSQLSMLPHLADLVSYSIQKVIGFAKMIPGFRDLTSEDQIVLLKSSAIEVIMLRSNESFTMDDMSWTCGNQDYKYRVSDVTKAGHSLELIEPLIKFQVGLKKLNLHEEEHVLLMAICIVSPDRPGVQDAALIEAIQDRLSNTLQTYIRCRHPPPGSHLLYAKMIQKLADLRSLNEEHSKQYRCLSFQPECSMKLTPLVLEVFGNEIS
Data set [3] deals with T1, Histone deacetylase 1. The experiment in a line: Inhibition of HDAC1 in human HeLa cell nuclear extract using Bos-Lys(acetyl)-AMC as substrate preincubated for 5 mins followed by substrate addition incubated for 30 mins. Type of data set: cell-free.
Data set [4] deals with Epidermal growth factor receptor (Homo sapiens), P00533 [UNDEFINED MUTATION]. The experiment in a line: Inhibition of EGFR T790M (unknown origin) at 1 uM incubated for 40 mins in presence of ATP relative to control.
The target in data set [5] is T2, Epidermal growth factor receptor (Homo sapiens, UniProt P00533). The experiment in a line: Inhibition of EGFR wildtype (unknown origin) incubated for 40 mins in presence of ATP.
T2 sequence (P00533 whole entry): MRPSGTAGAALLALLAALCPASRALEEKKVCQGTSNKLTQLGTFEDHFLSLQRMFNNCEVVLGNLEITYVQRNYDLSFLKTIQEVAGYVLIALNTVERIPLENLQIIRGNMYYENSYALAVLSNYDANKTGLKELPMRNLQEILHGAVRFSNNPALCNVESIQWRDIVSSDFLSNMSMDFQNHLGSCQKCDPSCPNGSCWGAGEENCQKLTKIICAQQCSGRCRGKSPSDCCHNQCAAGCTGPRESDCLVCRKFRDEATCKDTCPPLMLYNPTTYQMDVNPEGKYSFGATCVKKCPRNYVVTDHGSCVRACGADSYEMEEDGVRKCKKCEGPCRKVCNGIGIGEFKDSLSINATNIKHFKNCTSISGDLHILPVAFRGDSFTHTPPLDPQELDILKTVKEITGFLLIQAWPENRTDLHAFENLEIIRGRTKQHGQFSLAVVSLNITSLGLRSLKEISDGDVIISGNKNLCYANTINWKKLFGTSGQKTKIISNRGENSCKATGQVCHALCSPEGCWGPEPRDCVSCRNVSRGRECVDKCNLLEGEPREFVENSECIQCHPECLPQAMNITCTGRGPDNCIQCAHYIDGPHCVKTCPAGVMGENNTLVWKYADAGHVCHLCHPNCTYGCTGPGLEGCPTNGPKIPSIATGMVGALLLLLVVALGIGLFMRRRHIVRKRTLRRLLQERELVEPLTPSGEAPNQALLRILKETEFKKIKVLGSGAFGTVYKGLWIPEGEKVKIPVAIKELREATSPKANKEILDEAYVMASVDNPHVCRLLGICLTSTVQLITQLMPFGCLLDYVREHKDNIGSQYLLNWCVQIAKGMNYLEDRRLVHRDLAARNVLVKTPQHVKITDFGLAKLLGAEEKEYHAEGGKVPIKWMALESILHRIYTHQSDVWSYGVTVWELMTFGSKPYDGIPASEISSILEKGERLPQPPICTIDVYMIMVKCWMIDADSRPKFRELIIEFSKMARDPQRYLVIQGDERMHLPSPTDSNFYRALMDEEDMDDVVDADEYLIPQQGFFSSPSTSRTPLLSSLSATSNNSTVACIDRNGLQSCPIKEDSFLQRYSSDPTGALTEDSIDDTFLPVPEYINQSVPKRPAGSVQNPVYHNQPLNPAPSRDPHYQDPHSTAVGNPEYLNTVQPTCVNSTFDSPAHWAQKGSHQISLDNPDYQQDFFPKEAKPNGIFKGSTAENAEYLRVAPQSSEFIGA
The target of data set [6] is Epidermal growth factor receptor (Homo sapiens, UniProt P00533, T790M). The experiment in a line: Inhibition of EGFR T790M (unknown origin) incubated for 40 mins in presence of ATP.
Epidermal growth factor receptor (Homo sapiens, UniProt P00533, T790M), sequence (P00533 25-1210 T790M limits assumed): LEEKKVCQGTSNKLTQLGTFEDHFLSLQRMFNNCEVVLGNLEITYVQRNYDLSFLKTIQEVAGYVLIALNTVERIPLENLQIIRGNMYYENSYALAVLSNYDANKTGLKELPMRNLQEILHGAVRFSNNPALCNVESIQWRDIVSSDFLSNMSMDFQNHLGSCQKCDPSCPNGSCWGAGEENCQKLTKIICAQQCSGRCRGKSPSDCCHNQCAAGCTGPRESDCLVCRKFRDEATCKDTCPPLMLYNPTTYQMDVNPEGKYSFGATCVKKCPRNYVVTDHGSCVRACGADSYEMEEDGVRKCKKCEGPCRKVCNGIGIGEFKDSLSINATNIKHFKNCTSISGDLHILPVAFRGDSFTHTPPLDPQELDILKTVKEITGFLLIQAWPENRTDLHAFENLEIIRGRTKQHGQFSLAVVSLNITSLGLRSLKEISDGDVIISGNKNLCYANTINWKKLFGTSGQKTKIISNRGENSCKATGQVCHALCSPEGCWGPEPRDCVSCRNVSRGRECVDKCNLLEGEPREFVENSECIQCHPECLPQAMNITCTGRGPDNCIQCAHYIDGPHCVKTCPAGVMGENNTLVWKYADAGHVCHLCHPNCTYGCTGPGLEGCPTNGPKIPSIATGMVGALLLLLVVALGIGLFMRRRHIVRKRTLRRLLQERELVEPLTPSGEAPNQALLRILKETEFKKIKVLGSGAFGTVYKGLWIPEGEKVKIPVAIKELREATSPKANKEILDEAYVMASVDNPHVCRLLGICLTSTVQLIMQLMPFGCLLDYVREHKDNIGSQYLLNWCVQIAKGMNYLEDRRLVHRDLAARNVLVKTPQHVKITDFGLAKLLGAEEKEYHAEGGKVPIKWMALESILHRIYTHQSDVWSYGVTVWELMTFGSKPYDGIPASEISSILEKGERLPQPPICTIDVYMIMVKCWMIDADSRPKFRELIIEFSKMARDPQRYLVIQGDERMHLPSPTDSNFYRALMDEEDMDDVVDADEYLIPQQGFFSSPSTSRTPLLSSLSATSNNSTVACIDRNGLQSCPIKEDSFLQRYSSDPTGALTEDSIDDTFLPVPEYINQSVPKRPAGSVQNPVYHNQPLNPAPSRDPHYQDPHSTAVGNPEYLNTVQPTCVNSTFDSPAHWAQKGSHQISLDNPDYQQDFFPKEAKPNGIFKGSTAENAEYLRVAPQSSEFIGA
The next data set has as its system A549. Briefly: Antiproliferative activity against human A549 cells incubated for 72 hrs by CCK-8 assay. In kind it is functional, cell-based. The following applies: A549, 72 h. (In general: Tetrazolium assays rely on reduction of a dye to a coloured formazan, in cell work by metabolically active cells.)
In a further data set the test system is HeLa. The experiment in a line: Antiproliferative activity against human HeLa cells incubated for 72 hrs by CCK-8 assay. In kind it is functional, cell-based.
In the next data set the test system is HepG2. The experiment in a line: Antiproliferative activity against human HepG2 cells incubated for 72 hrs by CCK-8 assay. Type of data set: functional, cell-based. The following applies: HepG2, 72 h.
Data set [7] has as its system MCF7. The experiment in a line: Antiproliferative activity against human MCF7 cells incubated for 72 hrs by CCK-8 assay. In kind it is functional, cell-based. The following applies: MCF7, 72 h.
The subject of data set [8] is PC-3. The experiment in a line: Antiproliferative activity against human PC-3 cells incubated for 72 hrs by CCK-8 assay. In kind it is functional, cell-based. The following applies: PC-3, 72 h.
Another data set has as its target Tubulin. The experiment in a line: Inhibition of tubulin polymerization (unknown origin) incubated for 15 mins in presence of GTP by fluorescence-based tubulin polymerization assay kit. Type of data set: protein-complex assay, Homo sapiens.
Data set [9] addresses T3, Protein deacetylase HDAC6 (Homo sapiens, UniProt Q9UBN7).
T3 sequence (Q9UBN7 whole entry): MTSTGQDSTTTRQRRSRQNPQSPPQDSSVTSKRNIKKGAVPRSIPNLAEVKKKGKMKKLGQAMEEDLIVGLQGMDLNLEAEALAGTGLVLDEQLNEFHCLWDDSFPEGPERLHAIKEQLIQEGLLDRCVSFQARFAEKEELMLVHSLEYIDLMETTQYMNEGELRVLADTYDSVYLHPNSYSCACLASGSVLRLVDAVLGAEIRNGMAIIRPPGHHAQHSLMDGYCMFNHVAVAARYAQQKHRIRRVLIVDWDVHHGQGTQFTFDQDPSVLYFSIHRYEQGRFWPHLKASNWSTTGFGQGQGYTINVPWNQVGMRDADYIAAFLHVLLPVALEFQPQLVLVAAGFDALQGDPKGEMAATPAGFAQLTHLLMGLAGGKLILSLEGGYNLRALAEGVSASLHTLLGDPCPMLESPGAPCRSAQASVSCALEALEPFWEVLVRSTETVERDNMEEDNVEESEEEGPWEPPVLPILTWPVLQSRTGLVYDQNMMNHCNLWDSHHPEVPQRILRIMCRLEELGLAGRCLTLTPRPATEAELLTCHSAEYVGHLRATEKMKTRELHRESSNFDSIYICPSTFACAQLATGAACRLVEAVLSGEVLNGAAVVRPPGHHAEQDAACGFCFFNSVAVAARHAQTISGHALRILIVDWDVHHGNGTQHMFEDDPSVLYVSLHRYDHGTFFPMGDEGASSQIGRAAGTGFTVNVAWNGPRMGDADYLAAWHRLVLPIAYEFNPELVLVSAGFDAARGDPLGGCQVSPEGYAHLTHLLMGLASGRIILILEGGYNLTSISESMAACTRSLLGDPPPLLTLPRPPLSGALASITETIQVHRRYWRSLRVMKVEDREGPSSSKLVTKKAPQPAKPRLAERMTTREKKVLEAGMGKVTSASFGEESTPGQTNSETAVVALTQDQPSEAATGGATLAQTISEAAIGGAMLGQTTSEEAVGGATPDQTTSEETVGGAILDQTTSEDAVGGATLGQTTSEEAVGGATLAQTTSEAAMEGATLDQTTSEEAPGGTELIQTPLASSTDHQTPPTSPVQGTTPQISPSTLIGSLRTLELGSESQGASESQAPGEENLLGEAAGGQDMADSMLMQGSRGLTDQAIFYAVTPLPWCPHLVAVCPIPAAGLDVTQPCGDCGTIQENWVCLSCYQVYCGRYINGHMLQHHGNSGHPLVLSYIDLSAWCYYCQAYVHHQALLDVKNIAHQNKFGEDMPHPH
The experiment in a line: Inhibition of HDAC6 (unknown origin).

The next data set addresses Histone deacetylase 8 (Homo sapiens, UniProt Q9BY41). Briefly: Inhibition of HDAC8 (unknown origin).
In another data set the target is Histone deacetylase 3 (Homo sapiens, UniProt O15379). Briefly: Inhibition of HDAC3 (unknown origin).
Histone deacetylase 3, sequence (O15379 whole entry): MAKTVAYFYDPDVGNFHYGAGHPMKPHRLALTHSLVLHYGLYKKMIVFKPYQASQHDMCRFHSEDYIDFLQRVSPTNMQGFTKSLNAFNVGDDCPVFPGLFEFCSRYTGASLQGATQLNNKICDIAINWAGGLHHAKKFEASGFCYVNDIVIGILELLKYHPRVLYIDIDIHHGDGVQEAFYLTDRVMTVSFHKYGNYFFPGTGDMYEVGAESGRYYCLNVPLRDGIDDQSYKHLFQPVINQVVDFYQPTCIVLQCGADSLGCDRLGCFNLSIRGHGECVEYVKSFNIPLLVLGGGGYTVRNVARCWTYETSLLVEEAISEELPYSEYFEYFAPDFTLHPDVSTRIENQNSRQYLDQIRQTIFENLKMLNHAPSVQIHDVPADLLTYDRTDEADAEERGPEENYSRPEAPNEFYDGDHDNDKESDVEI
The next data set addresses Histone deacetylase 11 (Homo sapiens, UniProt Q96DB2). The experiment in a line: Inhibition of HDAC11 (unknown origin).
The nature of data set [10]: Cytotoxicity against human WM983B cells. Type of data set: functional, cell-based.
The target of data set [11] is T1, Histone deacetylase 1. The experiment in a line: Inhibition of HDAC1 (unknown origin).
The nature of data set [12]: Antiproliferative activity against non-small cell lung cancer cell line (unknown origin).
The target in data set [13] is Polyamine deacetylase HDAC10 (Homo sapiens, UniProt Q969S8). Briefly: Inhibition of HDAC10 (unknown origin).
Data set [14] is described as follows: Antiproliferative activity against breast cancer cell line (unknown origin).
Data set [15] has as its target Cyclin-dependent kinase 4 (Homo sapiens, UniProt P11802). The experiment in a line: Inhibition of Cdk4 (unknown origin).
For data set [16], the system named is MCF7. The experiment in a line: Cytotoxicity against human MCF7 cells. In kind it is functional, cell-based.
The next data set relates to RWPE-1. The experiment in a line: Cytotoxicity against human RWPE-1 cells. Type of data set: functional, cell-based.
Data set [17] in a line: Cytotoxicity against African green monkey Vero cells. The following applies: African green monkey (Chlorocebus sabaeus).
The test system of another data set is MDA-MB-231. Briefly: Cytotoxicity against human MDA-MB-231 cells. Type of data set: functional, cell-based.
Data set [18] has as its system PC-3. Briefly: Cytotoxicity against human PC-3 cells. Type of data set: functional, cell-based.
In another data set the target is Histone deacetylase 2 (Homo sapiens, UniProt Q92769). The experiment in a line: Inhibition of human HDAC2 incubated for 30 mins by SpectraMax M2 microplate reader analysis.
Histone deacetylase 2, sequence (Q92769 whole entry): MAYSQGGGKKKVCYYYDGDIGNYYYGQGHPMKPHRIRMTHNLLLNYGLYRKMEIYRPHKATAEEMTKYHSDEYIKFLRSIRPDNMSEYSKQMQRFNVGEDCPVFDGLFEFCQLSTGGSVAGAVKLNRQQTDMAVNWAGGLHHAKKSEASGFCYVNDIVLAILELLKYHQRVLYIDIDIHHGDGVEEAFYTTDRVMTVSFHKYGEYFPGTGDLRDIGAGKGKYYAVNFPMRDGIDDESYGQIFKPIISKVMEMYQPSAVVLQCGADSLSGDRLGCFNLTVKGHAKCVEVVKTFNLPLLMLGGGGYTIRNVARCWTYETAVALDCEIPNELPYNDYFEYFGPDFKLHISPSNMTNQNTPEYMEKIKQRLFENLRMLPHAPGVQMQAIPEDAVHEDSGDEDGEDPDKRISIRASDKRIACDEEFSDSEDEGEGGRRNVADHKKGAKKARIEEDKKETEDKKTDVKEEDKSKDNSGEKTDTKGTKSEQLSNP
For data set [19], the target named is T2, Epidermal growth factor receptor. The experiment in a line: Inhibition of EGFR (unknown origin).
In data set [20] the target is Receptor tyrosine-protein kinase erbB-2 (Homo sapiens, UniProt P04626). Briefly: Inhibition of HER2 (unknown origin).
In data set [21] the target is T1, Histone deacetylase 1. The experiment in a line: Inhibition of human recombinant HDAC1 using Ac-Lys-Tyr-Lys (epsilon-acetyl)-AMC as substrate incubated for 24 hrs by EnVision multilabel plate reader method.
The nature of data set [22]: Inhibition of PDGFR (unknown origin). The arrangement: species or system Homo sapiens.
The subject of another data set is CAPAN-1. The experiment in a line: Antitumor activity against human CAPAN-1 cells xenografted in mouse assessed tumor growth inhibition at 20 mg/kg, ip, bid relative to control. In kind it is functional. The following applies: read-out: TGI. On the technique in general: A xenograft is tissue or cells of one species grown in another, often human tumour cells in immunodeficient mice.

Histone deacetylase 11, sequence (Q96DB2 whole entry): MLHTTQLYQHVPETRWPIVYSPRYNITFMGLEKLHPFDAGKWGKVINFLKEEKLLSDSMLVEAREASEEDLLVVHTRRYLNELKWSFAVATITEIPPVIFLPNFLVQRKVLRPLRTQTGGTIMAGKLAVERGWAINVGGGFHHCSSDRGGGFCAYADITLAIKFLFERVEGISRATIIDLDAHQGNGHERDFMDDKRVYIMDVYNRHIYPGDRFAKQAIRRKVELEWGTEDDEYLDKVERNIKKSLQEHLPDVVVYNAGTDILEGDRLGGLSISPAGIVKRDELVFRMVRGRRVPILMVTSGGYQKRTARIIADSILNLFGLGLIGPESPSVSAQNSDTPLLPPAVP
Histone deacetylase 8, sequence (Q9BY41 whole entry): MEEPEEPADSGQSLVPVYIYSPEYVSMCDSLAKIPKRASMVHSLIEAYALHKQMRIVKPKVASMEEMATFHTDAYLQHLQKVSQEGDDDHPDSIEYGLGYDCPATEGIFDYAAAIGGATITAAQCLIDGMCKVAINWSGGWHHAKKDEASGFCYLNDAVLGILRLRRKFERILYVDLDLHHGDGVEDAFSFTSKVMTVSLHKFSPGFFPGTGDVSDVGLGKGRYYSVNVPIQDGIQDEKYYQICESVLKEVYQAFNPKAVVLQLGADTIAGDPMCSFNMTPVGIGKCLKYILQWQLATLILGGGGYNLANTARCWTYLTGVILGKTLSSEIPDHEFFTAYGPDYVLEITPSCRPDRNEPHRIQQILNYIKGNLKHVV

Consider `O=C(CCn1cc(CCn2nnc3c(Br)c(Br)c(Br)c(Br)c32)nn1)NO`, for which the half-inhibitory concentration (IC50) in the data set on MCF7 [1] amounted to 17300 nM. For the same compound, the CC50 in the data set on HEK-293T, in the data set with HaCaT, in the data set on Jurkat and in the data set on L1210 was 13500 nM in each case. On Histone deacetylase 1 [2], this compound gave an inhibition of 90%.

In turn, `CC(/C=C/C(=O)NO)=C\[C@@H](C)C(=O)c1ccc(N(C)C)cc1` [TRICHOSTATIN] came in with a concentration for half-maximal inhibition (IC50) at Vitamin D3 receptor of 87 nM.

For `Cn1cc(-c2ccnc(Nc3ccc(NC(=O)CCCCCCC(=O)NO)cc3)n2)c2ccccc21`, the IC50 against Histone deacetylase 1 [3] is 105 nM; in data set [5], 3200 nM; in data set [6], 1200 nM. The inhibition in data set [4] turned out to be 44%.

As to `C[C@H]1COc2c(N3CCN(C)CC3)c(F)cc3c(=O)c(C(=O)O)cn1c23` [LEVOFLOXACIN], the concentration for half-maximal inhibition (IC50) with A549 is over 70000 nM; in the data set with HeLa, over 70000 nM; with HepG2, over 70000 nM; in the data set on MCF7 [7], over 70000 nM; in the data set with PC-3 [8], over 70000 nM; at Tubulin, 11300 nM.

As for `O=C(CCCCCOc1no[n+]([O-])c1S(=O)(=O)c1ccccc1)NO`, the half-maximal inhibitory concentration (IC50) is 7400 nM in [9], 343 nM against Histone deacetylase 8, 532 nM on Histone deacetylase 3 and 608 nM on Histone deacetylase 11.

The compound `Nc1ccccc1NC(=O)c1ccc(CCCC(=O)Nc2ccc(C3CC3N)cc2)cc1` (stereo not drawn) returned an IC50 in data set [10] of 200 nM.

In the case of `Cc1nc2c(F)cc(-c3nc(Nc4ccc(CNC(=O)CC(=O)NO)cc4)ncc3F)cc2n1C(C)C`, the 50% inhibitory concentration (IC50) was determined as 26 nM at Histone deacetylase 1 [11]; 5.9 nM in [9]; 18.3 nM in data set [12]; 73 nM in [13]; 18.3 nM in data set [14]; 1.2 nM in [15]. Also, the IC50 against Histone deacetylase 3 stood at 56 nM.

Regarding `CC1(C)C(=O)N(c2ccc(C#N)c(C(F)(F)F)c2)C(=O)N1CCCCCCc1cn(CCCCCCC(=O)NO)nn1`, the half-inhibitory concentration (IC50) is 14600 nM with MCF7 [16]; 12100 nM in the data set on RWPE-1; over 20000 nM in data set [17]; over 20000 nM in the data set with MDA-MB-231; 15700 nM in the data set with PC-3 [18].

Turning to `C[C@H]1COc2c(N3CCN(C)CC3)c(F)cc3c(=O)c(C(=O)NCc4cn(CCCCCC(=O)NO)nn4)cn1c23`, the IC50 on Tubulin amounted to 2020 nM; at Histone deacetylase 2 it was 850 nM.

For `C#Cc1cccc(Nc2ncnc3ccc(S(=O)(=O)n4ccc(/C=C/C(=O)Nc5ccccc5N)c4)cc23)c1`, the figures for the concentration for half-maximal inhibition (IC50) (against Histone deacetylase 1 [11]; in data set [19]; in data set [20]) were 41 nM, 78 nM and 66 nM, respectively.

As for `COc1cc2ncnc(Nc3cccc(/C=C/C(=O)NO)c3)c2cc1OCCCN1CCOCC1`, the IC50 at Histone deacetylase 1 [21] is 150 nM.

For `Cc1ccc(NCc2ccc(C(=O)Nc3ccccc3N)cc2)cc1Nc1nccc(-c2cccnc2)n1`, the values for the IC50 in [9] and in data set [22] were at least 32000 nM and 2700 nM, respectively.

Regarding `Cc1sc2c(c1C)C(c1ccc(Cl)cc1)=N[C@@H](CC(=O)Nc1ccc(C(=O)NO)cc1)c1nnc(C)n1-2`, in the data set with CAPAN-1, the inhibition in vivo at 20 mg/kg was 87.7%.

The term IC50 denotes the concentration that inhibits the measured activity by half. The inhibition is how much of the control response was suppressed.
